# According to publication PMC5487684, “Safety, Pharmacokinetics, and Antiviral Activity of a Novel HIV Antiviral, ABX464, in Treatment-Naive HIV-Infected Subjects in a Phase 2 Randomized, Controlled Study” (Antimicrobial Agents and Chemotherapy, 2017):
# Tested on: HIV-infected subjects
# Experiment: Safety and tolerability (TEAEs, ECG, laboratory) after repeated oral administration, phase 2a study
# Format: in vivo, human
# Conditions: for Subjects experiencing at least one TEAE: Flank pain / Subjects experiencing at least one TEAE: Headache / Subjects experiencing at least one TEAE: Injury, poisoning, and procedural complications / Subjects experiencing at least one TEAE: Musculoskeletal and connective tissue disorders / Subjects experiencing at least one TEAE: Nausea / Subjects experiencing at least one TEAE: Neck pain / Subjects experiencing at least one TEAE: Nervous system disorders / Subjects experiencing at least one TEAE: Pain in extremity / Subjects experiencing at least one TEAE: Sciatica, back pain / Subjects experiencing at least one TEAE: Skin abrasion / Subjects experiencing at least one TEAE: Total / Subjects experiencing at least one TEAE: Upper abdominal pain / Subjects experiencing at least one TEAE: Vomiting / Subjects experiencing at least one TEAE: Abdominal pain / Subjects experiencing at least one TEAE: Arthralgia / Subjects experiencing at least one TEAE: Back pain / Subjects experiencing at least one TEAE: Diarrhea / Subjects experiencing at least one TEAE: Gastrointestinal disorders: fed
# Procedure: Participants were assigned to one of eight groups; each group (with one exception) included eight subjects receiving either ABX464 (n = 6) or the corresponding placebo (n = 2) according to a randomization code. […] In the present study with HIV-infected subjects, the first dose administered was 25 mg, given once or 3 times a day over a 2- to 3-week period. This initial dose was therefore considered safe for assessment of the safety and tolerability of ABX464 after repeated oral administrations in subjects infected by HIV and determination of the potential effect on the HIV viral load.
# The final dosing protocol for each of the eight groups was as follows: group 1, 25 mg every 3 days for 2 to 3 weeks under fasted conditions; group 2, 25 mg once a day (q.d.) for 2 to 3 weeks under fasted conditions; group 3, 50 mg once a day for 2 to 3 weeks under fasted conditions; group 4, 50 mg 3 times a day (t.i.d.) for 4 weeks under fed conditions; group 5, 75 mg once a day for 2 weeks under fed conditions; group 6, 100 mg once a day for 2 to 3 weeks under fasted conditions; group 7, 150 mg every 3 days for 2 to 3 weeks under fed conditions; and group 8, 150 mg once a day for 2 weeks under fed conditions. Per the study protocol, the treatment period was defined as 2 weeks. […] The decision to proceed to the next highest dose was determined by the data and safety monitoring board after review of the laboratory safety data, vital signs, ECGs, and adverse event reports from the group receiving the current dose after 2 weeks of treatment.
# Subjects were hospitalized from the day prior to the first dose to at least the morning of day 2. They were orally dosed with 25-mg capsules of ABX464 with 240 ml water under fed or fasted conditions. According to the group, subjects were dosed with 1, 2, 3, 4, or 6 capsules to deliver 25 mg, 50 mg, 75 mg, 100 mg, or 150 mg product, respectively, or the same number of placebo capsules.
# Safety assessments and laboratory tests were carried out according to the schedules described in Table S4 for groups dosed every day, every 3 days, and 3 times a day. Follow-up visits were scheduled for 7 days after the last dose and subsequently once every week in order to assess the elimination of the main ABX464 metabolite and to assess the viral load. Follow-up visits were terminated when the virus load was within 0.5 log of the baseline value or after 3 follow-up visits, whichever came first. Prior to the statistical analyses, AEs were coded using the Medical Dictionary for Regulatory Activities (MedDRA dictionary; last available version) in order to be tabulated by system organ class (SOC) and preferred term (PT). The AEs were analyzed according to the treatment emergence phase from the first study drug administration on day 1 up to 48 h after the last study drug administration. The number and percentage of subjects with at least one TEAE were tabulated by SOC and PT for each group and dose. The number of occurrences of TEAEs was also analyzed in the same way by SOC and PT for each group and dose, by grade of severity for each group and dose, and by level of causality to the study drug for each group and dose.
# [1] = Group 7 (n = 6), 150 mg every 3 days, Mild
# [2] = Group 7 (n = 6), 150 mg every 3 days, Moderate
# [3] = Group 8 (n = 6), 150 mg q.d., Mild
# [4] = Group 8 (n = 6), 150 mg q.d., Moderate
smiles,measurement,setting,value
FC(F)(F)Oc1ccc(Nc2ccc3cccc(Cl)c3n2)cc1 [ABX464],Subjects experiencing at least one TEAE: Flank pain,[1],0 (0.0) No. (%)
same,Subjects experiencing at least one TEAE: Headache,[1],4 (66.7) No. (%)
same,"Subjects experiencing at least one TEAE: Injury, poisoning, and procedural complications",[1],0 (0.0) No. (%)
same,Subjects experiencing at least one TEAE: Musculoskeletal and connective tissue disorders,[1],1 (16.7) No. (%)
same,Subjects experiencing at least one TEAE: Nausea,[1],4 (66.7) No. (%)
same,Subjects experiencing at least one TEAE: Neck pain,[1],0 (0.0) No. (%)
same,Subjects experiencing at least one TEAE: Nervous system disorders,[1],4 (66.7) No. (%)
same,Subjects experiencing at least one TEAE: Pain in extremity,[1],0 (0.0) No. (%)
same,"Subjects experiencing at least one TEAE: Sciatica, back pain",[1],0 (0.0) No. (%)
same,Subjects experiencing at least one TEAE: Skin abrasion,[1],0 (0.0) No. (%)
same,Subjects experiencing at least one TEAE: Total,[1],5 (83.3) No. (%)
same,Subjects experiencing at least one TEAE: Upper abdominal pain,[1],0 (0.0) No. (%)
same,Subjects experiencing at least one TEAE: Vomiting,[1],1 (16.7) No. (%)
same,Subjects experiencing at least one TEAE: Abdominal pain,[2],0 (0.0) No. (%)
same,Subjects experiencing at least one TEAE: Arthralgia,[2],0 (0.0) No. (%)
same,Subjects experiencing at least one TEAE: Back pain,[2],0 (0.0) No. (%)
same,Subjects experiencing at least one TEAE: Diarrhea,[2],0 (0.0) No. (%)
same,Subjects experiencing at least one TEAE: Flank pain,[2],0 (0.0) No. (%)
same,Subjects experiencing at least one TEAE: Gastrointestinal disorders,[2],3 (50.0) No. (%)
same,Subjects experiencing at least one TEAE: Headache,[2],3 (50.0) No. (%)
same,"Subjects experiencing at least one TEAE: Injury, poisoning, and procedural complications",[2],0 (0.0) No. (%)
same,Subjects experiencing at least one TEAE: Musculoskeletal and connective tissue disorders,[2],0 (0.0) No. (%)
same,Subjects experiencing at least one TEAE: Nausea,[2],3 (50.0) No. (%)
same,Subjects experiencing at least one TEAE: Neck pain,[2],0 (0.0) No. (%)
same,Subjects experiencing at least one TEAE: Nervous system disorders,[2],4 (66.7) No. (%)
same,Subjects experiencing at least one TEAE: Pain in extremity,[2],0 (0.0) No. (%)
same,"Subjects experiencing at least one TEAE: Sciatica, back pain",[2],0 (0.0) No. (%)
same,Subjects experiencing at least one TEAE: Skin abrasion,[2],0 (0.0) No. (%)
same,Subjects experiencing at least one TEAE: Total,[2],4 (66.7) No. (%)
same,Subjects experiencing at least one TEAE: Upper abdominal pain,[2],0 (0.0) No. (%)
same,Subjects experiencing at least one TEAE: Vomiting,[2],3 (50.0) No. (%)
same,Subjects experiencing at least one TEAE: Abdominal pain,[3],1 (16.7) No. (%)
same,Subjects experiencing at least one TEAE: Arthralgia,[3],0 (0.0) No. (%)
same,Subjects experiencing at least one TEAE: Back pain,[3],0 (0.0) No. (%)
same,Subjects experiencing at least one TEAE: Diarrhea,[3],0 (0.0) No. (%)
same,Subjects experiencing at least one TEAE: Flank pain,[3],0 (0.0) No. (%)
same,Subjects experiencing at least one TEAE: Gastrointestinal disorders,[3],6 (100.0) No. (%)
same,Subjects experiencing at least one TEAE: Headache,[3],6 (100.0) No. (%)
same,"Subjects experiencing at least one TEAE: Injury, poisoning, and procedural complications",[3],0 (0.0) No. (%)
same,Subjects experiencing at least one TEAE: Musculoskeletal and connective tissue disorders,[3],1 (16.7) No. (%)
same,Subjects experiencing at least one TEAE: Nausea,[3],6 (100.0) No. (%)
same,Subjects experiencing at least one TEAE: Neck pain,[3],0 (0.0) No. (%)
same,Subjects experiencing at least one TEAE: Nervous system disorders,[3],6 (100.0) No. (%)
same,Subjects experiencing at least one TEAE: Pain in extremity,[3],1 (16.7) No. (%)
same,"Subjects experiencing at least one TEAE: Sciatica, back pain",[3],0 (0.0) No. (%)
same,Subjects experiencing at least one TEAE: Skin abrasion,[3],0 (0.0) No. (%)
same,Subjects experiencing at least one TEAE: Total,[3],6 (100.0) No. (%)
same,Subjects experiencing at least one TEAE: Upper abdominal pain,[3],0 (0.0) No. (%)
same,Subjects experiencing at least one TEAE: Vomiting,[3],4 (66.7) No. (%)
same,Subjects experiencing at least one TEAE: Abdominal pain,[4],0 (0.0) No. (%)
same,Subjects experiencing at least one TEAE: Arthralgia,[4],0 (0.0) No. (%)
same,Subjects experiencing at least one TEAE: Back pain,[4],0 (0.0) No. (%)
same,Subjects experiencing at least one TEAE: Diarrhea,[4],0 (0.0) No. (%)
same,Subjects experiencing at least one TEAE: Flank pain,[4],0 (0.0) No. (%)
same,Subjects experiencing at least one TEAE: Headache,[4],0 (0.0) No. (%)
same,"Subjects experiencing at least one TEAE: Injury, poisoning, and procedural complications",[4],1 (16.7) No. (%)
same,Subjects experiencing at least one TEAE: Musculoskeletal and connective tissue disorders,[4],0 (0.0) No. (%)
same,Subjects experiencing at least one TEAE: Nausea,[4],0 (0.0) No. (%)
same,Subjects experiencing at least one TEAE: Neck pain,[4],0 (0.0) No. (%)
same,Subjects experiencing at least one TEAE: Nervous system disorders,[4],0 (0.0) No. (%)
same,Subjects experiencing at least one TEAE: Pain in extremity,[4],0 (0.0) No. (%)
same,"Subjects experiencing at least one TEAE: Sciatica, back pain",[4],0 (0.0) No. (%)
same,Subjects experiencing at least one TEAE: Skin abrasion,[4],1 (16.7) No. (%)
same,Subjects experiencing at least one TEAE: Total,[4],1 (16.7) No. (%)
same,Subjects experiencing at least one TEAE: Upper abdominal pain,[4],0 (0.0) No. (%)
same,Subjects experiencing at least one TEAE: Vomiting,[4],0 (0.0) No. (%)
same,Frequency of subjects receiving ABX464 who reported TEAEs,all other groups (4 to 8),100%
same,Subjects with vomiting episodes,group receiving 150 mg ABX464,66.7%
same,Changes in laboratory parameters between baseline and posttreatment,in vivo,none of the changes in any laboratory parameter observed between baseline and posttreatment measurements suggested an impact
same,Electrocardiogram (ECG) parameters,in vivo,no clinically significant abnormalities
same,Product-related SAEs,in vivo,no product-related SAEs occurred
same,Subjects reporting upper abdominal pain,overall,6%
same,Number of AEs reported,"subjects who received the study drug, regardless of the dose or the drug regimen",158 AEs
same,Subjects reporting upper abdominal pain,"twenty cases, none in placebo",4 subjects
same,Overall safety and tolerability,"up to 150 mg once a day, HIV-infected subjects",safe and well tolerated
